Data published in ChEMBL document CHEMBL3352106, “Phosphocalyculin C as a pyrophosphate protoxin of calyculin C in the marine sponge Discodermia calyx” (Bioorg Med Chem Lett, 2014).

Tested on: P388
Experiment: Cytotoxicity against mouse P388 cells assessed as reduction in cell viability
Format: functional, cell-based

Molecule `COC[C@@H]([C@H](O)[C@H](O)C(=O)N[C@H](C)C[C@H](C)c1nc(/C=C/C[C@@H]2O[C@]3(C[C@@H](O)[C@@H]2C)O[C@H]([C@H](C[C@H](O)[C@H](C)[C@H](O)[C@H](C)/C=C(C)/C(C)=C/C=C/C(C)=C\C#N)OC)[C@H](OP(=O)(O)OP(=O)(O)O)C3(C)C)co1)N(C)C` has an IC50 of 36 nM.
For `COC[C@@H]([C@H](O)[C@H](O)C(=O)N[C@H](C)C[C@H](C)c1nc(/C=C/C[C@@H]2O[C@]3(C[C@@H](O)[C@@H]2C)O[C@H]([C@H](C[C@H](O)[C@H](C)[C@H](O)[C@H](C)/C=C(C)/C(C)=C/C=C/C(C)=C\C#N)OC)[C@H](OP(=O)(O)O)C3(C)C)co1)N(C)C` [CALYCULIN], the IC50 was 0.007 nM.
